Results reported in PMC5375023 (Neurochemistry international, 2017).
Read-outs that look alike come from different tables or passages of the source.

Legend:
CCF-STTG1 cells = experiment: BDNF secretion by in situ ELISA, CCF-STTG1; settings: for BDNF secretion from CCF-STTG1 cells, compound alone: 72 hrs treatment
[1] = tested on: BDNF mRNA in CCF-STTG1 cells; experiment: qPCR of BDNF steady-state mRNA; type: cell-based, human; settings: 3 hr
U87MG cells = experiment: BDNF secretion by in situ ELISA, U87MG; settings: 72 hrs treatment
BV-2 cells = experiment: BDNF secretion by in situ ELISA, BV-2; type: cell-based, murine; settings: 10 μM
human S1R [2] = molecular target: T1, human S1R (Homo sapiens, UniProt Q99720); experiment: Competition binding with [3H]-
T1 sequence (Q99720 whole entry): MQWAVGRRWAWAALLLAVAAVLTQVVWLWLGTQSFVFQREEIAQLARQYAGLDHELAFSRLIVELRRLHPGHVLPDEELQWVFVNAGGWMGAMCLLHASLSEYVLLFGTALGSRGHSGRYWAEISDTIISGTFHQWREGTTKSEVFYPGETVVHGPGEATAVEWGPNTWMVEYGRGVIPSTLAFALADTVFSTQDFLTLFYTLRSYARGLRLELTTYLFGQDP

human S2R = human S2R (Homo sapiens, UniProt Q5BJF2); experiment: Competition binding with [3H]DTG at S2R in untransfected MCF-7 cells; settings: for IC50: read-out: IC50 at S2R; for IC50 / Ki: MCF-7, ± SEM; for Ki: read-out: Ki at S2R
Chain of human S2R (Q5BJF2 whole entry): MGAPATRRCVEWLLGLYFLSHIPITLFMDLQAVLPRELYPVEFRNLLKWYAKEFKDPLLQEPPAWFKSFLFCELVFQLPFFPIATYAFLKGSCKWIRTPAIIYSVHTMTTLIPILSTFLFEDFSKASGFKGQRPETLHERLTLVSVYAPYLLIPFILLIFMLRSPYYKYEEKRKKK

EP2R = settings: 10 μM; ref af Forselles et al., 2011; cited from earlier work
human S1R [3] = molecular target: T1, human S1R; settings: ref Lee et al., 2008, cited from earlier work
ischemic stroke = settings: acute low dose 0.05 mg/kg, s.c., rats; ref Schetz et al., 2007; cited from earlier work
[4] = 15 nM, Fractional Occupancy = [ligand]/([ligand]+Ki)

With `OC(CCCN1CCC(O)(c2ccc(Cl)cc2)CC1)c1ccc(F)cc1` (racemic) [reduced haloperidol, (±)-4-(4-Chlorophenyl)-α-(4-fluorophenyl)-4-hydroxy-1-piperidinebutanol] the “BDNF secretion from CCF-STTG1 cells, compound alone” value (shortened to “BDNF secretion from CCF-STTG1 cells”) (CCF-STTG1 cells) was “facilitated BDNF secretion”, the “effect on BDNF mRNA levels” value ([1]; 10 μM) was “no effect on BDNF mRNA levels” and the “BDNF secretion from U87MG cells, compound alone” value (“BDNF secretion from U87MG cells” below) (U87MG cells) was “facilitated BDNF secretion”.
In the case of `c1ccc(CCCCN2CCC(c3ccccc3)CC2)cc1` [4-PPBP], the “BDNF secretion from CCF-STTG1 cells” value (CCF-STTG1 cells) is reported as “facilitated BDNF secretion”, the “effect on BDNF mRNA levels” value ([1]; 10 μM) is reported as “no effect on BDNF mRNA levels” and the “BDNF secretion from BV-2 cells, compound alone” value (BV-2 cells) is reported as “failed to significantly stimulate the secretion of detectable levels of BDNF”. The “BDNF signal above DMSO vehicle” value (BV-2 cells; BV-2 cells, P = 0.4) was 1.1 ± 0.06 fold.
With `CN1CCN(CCc2ccc(Cl)c(Cl)c2)CC1` [BD1063] the “expected S1R occupancy” value (human S1R [2]; 2 nM) was 27%, the “calculated S1R occupancy” value (human S1R [2]; [4]) was 74% and the “Ki(S2R)/Ki(S1R) selectivity” value (human S1R [2]; S1R over S2R) was 37 fold. The IC50 (human S1R [2]; read-out: IC50 at S1R, [3H]-(+)-pentazocine, MCF-7-S1R, ± SEM) was 0.0065 ± 0.00087 µM, the Ki (human S1R [2]; read-out: Ki at S1R, [3H]-(+)-pentazocine, MCF-7-S1R, ± SEM) was 0.0053 ± 0.00071 µM and the “BDNF secretion from CCF-STTG1 cells” value (CCF-STTG1 cells) was “no effect on its own”. For the same compound, the “effect on PGE2-stimulated BDNF response mediated by EP2R” value (CCF-STTG1 cells; S1R-selective dose of BD1063) was “does not modify the PGE2 stimulated response”, the “effect on BDNF secretion produced by S1R agonists 4-PPBP and (+)-SKF10047” value (CCF-STTG1 cells; antagonist 15 nM) was “significantly reduced BDNF secretion” and the “effect on BDNF secretion produced by haloperidol metabolites I and II” value (CCF-STTG1 cells; antagonist BD1063 co-applied) was “significantly diminished BDNF secretion”. The “calculated S2R occupancy” value (human S2R; [4]) was 7%, the IC50 (human S2R; [3H]-DTG) was 0.208 ± 0.03 µM and the Ki (human S2R; [3H]-DTG) was 0.194 ± 0.028 µM.
In the case of `C=C[C@@]1(C)CC(=O)[C@]2(O)[C@@]3(C)[C@@H](O)CCC(C)(C)[C@@H]3[C@H](O)[C@H](OC(C)=O)[C@@]2(C)O1` [Forskolin], the “increase in BDNF mRNA levels” value ([1]; 100 μM forskolin + 100 μM IBMX, normalized to vehicle) is reported as > 3 fold.
With `CC(C)Cn1c(=O)n(C)c(=O)c2[nH]cnc21` [IBMX] the “effect on BDNF mRNA levels” value ([1]; 100 μM) was “no effect on BDNF mRNA levels”.
Compound `CCCN(CCC)CCc1ccc(OC)c(OCCc2ccccc2)c1` [NE100] has an IC50 (human S2R; [3H]-DTG) of 0.046 ± 0.0064 µM and a Ki (human S2R; [3H]-DTG) of 0.043 ± 0.006 µM.
In the case of `COc1ccc2cc(OCC3(C(=O)O)CN(C(=O)c4ccc(F)cc4)C3)ccc2c1` [PF-04418948], the “BDNF secretion from CCF-STTG1 cells” value (CCF-STTG1 cells) is given as “no effect by itself”, the “effect on PGE2-stimulated BDNF secretion” value (CCF-STTG1 cells; antagonist 10 μM vs PGE2) is given as “blocked the stimulatory effect of PGE2” and the EP2 receptor occupancy (EP2R) is given as 99.9%.
With `CCCCC[C@H](O)/C=C/[C@H]1[C@H](O)CC(=O)[C@@H]1C/C=C\CCCC(=O)O` [PGE2, Prostaglandin E2] the “displacement of specifically bound radioligand from S1R” value (human S1R [2]; 10 μM, [3H]-(+)-pentazocine) was “unable to displace”, the “secreted BDNF, maximal stimulation” value (CCF-STTG1 cells; 10 μM, ± SEM, n = 6 experiments, baseline 75.4 ± 6.9) was 128.6 ± 12.8 pg/mL and the “BDNF secretion from CCF-STTG1 cells” value (CCF-STTG1 cells) was “secreted BDNF in a concentration-dependent manner”. For the same compound, the “displacement of specifically bound radioligand from S2R” value (human S2R; 10 μM, [3H]-DTG) was “unable to displace”.
For `CN1CCN(C2=Nc3cc(Cl)ccc3Nc3ccccc32)CC1` [clozapine], the “affinity for the S1R, in words” value (human S1R [3]) is listed as “essentially no affinity”.
In the case of `OC1(c2ccc(Cl)cc2)CCNCC1` [haloperidol metabolite I, 4-(4-Chlorophenyl)-4-hydroxypiperidine], the Ki (human S1R [3]; read-out: affinity (Ki) for the S1R) is listed as 0.128 µM, the “fold lower affinity for the S1R than haloperidol and reduced haloperidol” value (human S1R [3]) is listed as > 75 fold and the “BDNF secretion from CCF-STTG1 cells” value (CCF-STTG1 cells) is listed as “facilitated BDNF secretion”. For the same compound, the “effect on BDNF mRNA levels” value ([1]; 100 μM) was “no effect on BDNF mRNA levels” and the “BDNF secretion from U87MG cells” value (U87MG cells) was “facilitated BDNF secretion”.
For `O=C(O)CCC(=O)c1ccc(F)cc1` [haloperidol metabolite III, 3-(4-Fluorobenzoyl)propionic acid], the “affinity for the S1R, in words” value (human S1R [3]) is given as “essentially no detectable affinity”.
In the case of `O=C(CCCN1CCC(O)(c2ccc(Cl)cc2)CC1)c1ccc(F)cc1` [haloperidol, Haloperidol], the “BDNF secretion from CCF-STTG1 cells” value (CCF-STTG1 cells) is given as “but not haloperidol, facilitated BDNF secretion”, the “protection against ischemic stroke” value (ischemic stroke) is given as “protected rats against an ischemic stroke” and the “BDNF secretion from U87MG cells” value (U87MG cells) is given as “but not haloperidol, facilitated BDNF secretion”.
For (+)-SKF10047, the “BDNF secretion from CCF-STTG1 cells” value (CCF-STTG1 cells) was “facilitated BDNF secretion”.
